Experimental data reported in US20260297095A1, “NOVEL PYRROLOTRIAZINE DERIVATIVE AND USE THEREOF” (Pelemed Co., Ltd., priority 2024, published 2026).
Read-outs that look alike come from different tables or passages of the source.

What was measured:
[1] = molecular target: YES1 kinase (Homo sapiens, UniProt P07947); assay: YES1 kinase inhibition, ADP Glo assay (Promega); assay type: biochemical; conditions: for YES1 enzyme, % inhibition, 10 nM / inhibition at 0.01 µM: compound 10 nM; for YES1 enzyme, % inhibition, 100 nM / inhibition at 0.1 µM: compound 100 nM; for IC50: class symbols, read-out: YES1 enzyme, IC50; for inhibition at 0.001 µM: read-out: YES1 enzyme, % inhibition, 1 nM; for inhibition at 0.01 µM: read-out: YES1 enzyme, % inhibition, 10 nM; for inhibition at 0.1 µM: read-out: YES1 enzyme, % inhibition, 100 nM
Chain of YES1 kinase (P07947 whole entry): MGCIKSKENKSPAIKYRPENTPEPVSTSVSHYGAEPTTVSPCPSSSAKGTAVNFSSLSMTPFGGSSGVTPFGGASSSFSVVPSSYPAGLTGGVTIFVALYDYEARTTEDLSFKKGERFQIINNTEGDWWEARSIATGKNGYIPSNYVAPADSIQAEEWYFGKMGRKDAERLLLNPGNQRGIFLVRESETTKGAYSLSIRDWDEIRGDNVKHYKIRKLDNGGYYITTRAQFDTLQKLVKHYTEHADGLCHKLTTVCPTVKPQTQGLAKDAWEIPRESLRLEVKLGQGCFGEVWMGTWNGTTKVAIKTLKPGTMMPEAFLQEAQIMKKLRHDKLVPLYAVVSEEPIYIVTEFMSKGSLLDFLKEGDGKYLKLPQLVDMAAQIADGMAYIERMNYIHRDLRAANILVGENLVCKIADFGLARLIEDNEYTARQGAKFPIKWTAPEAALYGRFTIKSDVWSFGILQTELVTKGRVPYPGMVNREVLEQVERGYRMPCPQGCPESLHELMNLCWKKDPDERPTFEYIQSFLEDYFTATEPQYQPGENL
Procedure, shortened: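 YES1 kinase was preincubated 10 min with compound in Mn2+/DTT-containing kinase buffer, then reacted 40 min at room temperature with ATP/substrate; ADP was detected by ADP-Glo luminescence. Activity, background-subtracted and normalised to negative control, is given as % inhibition at 1, 10 and 100 nM, plus IC50.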

[2] = tested on: KYSE-70 esophageal cancer cell line; assay: Cell growth inhibition of KYSE-70 (Sulforhodamine B); assay type: cell-based; conditions: KYSE-70, 72 hours, read-out: KYSE70 GI50
Procedure, shortened: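 KYSE-70 cells (YES1-amplified) in RPMI-1640 with 10% FBS were seeded 24 h before treatment with compound at 0.0046–10 µM final. After 72 h, cells were TCA-fixed and stained with sulforhodamine B, with absorbance read at 510 nm. GI50 was derived with a time-zero plate set to 0% and the vehicle control to 100%, in duplicate tests.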

[3] = molecular target: T1, TEAD (Homo sapiens); assay: TEAD inhibition, KYSE-70 TEAD luciferase reporter cell line; assay type: cell-based; conditions: KYSE-70 TEAD luciferase reporter cells, 24 hours, normalized by cell viability; read-out: KYSE70 TEAD IC50
T1 construct: lentiviral TEAD luciferase reporter read-out
T1 sequence (P07947 whole entry): as above
Description: To evaluate the inhibitory activity on TEAD activity in KYSE-70 cells in which YES1 is overexpressed, the following experiment was performed.
TEAD luciferase reporter lentivirus (BPS Bioscience; TEAD luciferase reporter lentivirus) was co-cultured with KYSE-70 cell line for 48 hours, and then 1 μg/ml puromycin (Invitrogen) was added to the culture to induce cell death only in cells that were not infected with the virus, thereby generating a KYSE-70 cell line into which the TEAD luciferase reporter was introduced. The KYSE-70 TEAD luciferase reporter cell line was cultured in RPMI-1640 (Capricorn) supplemented with 10% FBS (Cellgro). The cells were seeded 24 hours prior to compound treatment into two 96-well F-bottom clear plates (Greiner) and two white clear bottom 96-well plates (Greiner), at 20,000 cells in 180 μL medium per well.
The 10 mM compound was diluted 100-fold in medium to prepare a 100 μM compound, then placed in a 96-well plate and further 3-fold diluted in medium to prepare a compound plate with concentrations ranging from 0.046 μM to 100 μM. 20 μL of each compound from the drug plate was injected into the cell-seeded plates to prepare the final concentrations 0.0046 μM to 10 μM. For TEAD activity measurement, 24 hours after compound treatment on the white clear bottom 96-well plate, 100 μL of medium was removed from each well, and 100 μL of One-Step™ Luciferase Assay System solution was added. After reacting at room temperature for 15 minutes, luminescence intensity was measured using a microplate reader (VICTOR X3, PerkinElmer). Since TEAD activity values needed to be normalized by cell viability, a cell viability assay was also performed. For measuring cell viability, 24 hours after compound treatment on the 96-well F-bottom clear plate, 50 μL of 33% trichloroacetic acid was added to each well and was fixed by incubating at 4° C. for 1 hour. After that, the plate was washed 5 times with sterile water, and 100 μL of 0.04% Sulforhodamine B solution in 1% acetic acid was added to react for 1 hour to stain the cells. After staining, the plates were washed 4 times with 1% acetic acid solution and completely dried. Then the Sulforhodamine B bound to cellular proteins was completely dissolved with 10 mM Tris base solution (pH 10.5). The absorbance was measured at a wavelength of 510 nm using a microplate reader (TECAN, sunrise microplate reader). The TEAD activity value and cell viability value were normalized, and a graph was drawn using the GraphPad Prism version 5.0 program, and the IC50 value was calculated.

tert-butyl (4-(4-amino-7-(4-(tert-butyl)piperazin-1-yl)pyrrolo[2,1-f][1,2,4]triazin-5-yl)-2-methoxyphenyl)carbamate [Example 16]
YES1 enzyme, % inhibition, 10 nM [1]: 30%
YES1 enzyme, % inhibition, 100 nM [1]: 36%
GI50 [2]: 1000 to 10000 nM
IC50 [3]: 1000 to 10000 nM

tert-butyl (4-(4-amino-7-(4-(dimethylamino)-3-methoxyphenyl)pyrrolo[2,1-f][1,2,4]triazin-5-yl)-2-methoxyphenyl)carbamate [Example 5]
YES1 enzyme, % inhibition, 10 nM [1]: 38%
YES1 enzyme, % inhibition, 100 nM [1]: 68%
GI50 [2]: 100 to 1000 nM
IC50 [3]: 100 to 1000 nM

tert-butyl (4-(4-amino-7-(4-(dimethylamino)-4-methylpiperidin-1-yl)pyrrolo[2,1-f][1,2,4]triazin-5-yl)-2-methoxyphenyl)carbamate [Example 13]
YES1 enzyme, % inhibition, 10 nM [1]: 77%
YES1 enzyme, % inhibition, 100 nM [1]: 93%
GI50 [2]: ≤ 100 nM
IC50 [3]: ≤ 100 nM

tert-butyl (4-(4-amino-7-(4-(methylamino)piperidin-1-yl)pyrrolo[2,1-f][1,2,4]triazin-5-yl)-2-methoxyphenyl)carbamate [Example 58]
IC50 [1]: ≤ 100 nM
GI50 [2]: 100 to 1000 nM
IC50 [3]: ≤ 100 nM

tert-butyl (4-(4-amino-7-(4-aminopiperidin-1-yl)-6-methylpyrrolo[2,1-f][1,2,4]triazin-5-yl)-2-methoxyphenyl)carbamate [Example 78]
GI50 [2]: ≤ 100 nM
IC50 [3]: ≤ 100 nM

CNCCC1CCN(c2cc(-c3ccc(NC(=O)OC(C)(C)C)c(OC)c3)c3c(N)ncnn23)CC1 [Example 108, tert-butyl (4-(4-amino-7-(4-(2-(methylamino)ethyl)piperidin-1-yl)pyrrolo[2,1-f][1,2,4]triazin-5-yl)-2-methoxyphenyl)carbamate]
IC50 [1]: ≤ 100 nM
inhibition at 0.001 µM ([1]; compound 1 nM): 38%
inhibition at 0.01 µM [1]: 52%
GI50 ([2]; Homo sapiens): ≤ 100 nM

COc1cc(-c2cc(N3CCC4(CCC(=O)N4)CC3)n3ncnc(N)c23)ccc1NC(=O)OC(C)(C)C [Example 54, tert-butyl (4-(4-amino-7-(2-oxo-1,8-diazaspiro[4.5]decan-8-yl)pyrrolo[2,1-f][1,2,4]triazin-5-yl)-2-methoxyphenyl)carbamate]
IC50 [1]: ≤ 100 nM
inhibition at 0.01 µM [1]: 20%
inhibition at 0.1 µM [1]: 60%
GI50 ([2]; Homo sapiens): ≤ 100 nM

COc1cc(-c2cc(NCC3CCNCC3)n3ncnc(N)c23)ccc1NC(=O)OC(C)(C)C [Example 117, tert-butyl (4-(4-amino-7-((piperidin-4-ylmethyl)amino)pyrrolo[2,1-f][1,2,4]triazin-5-yl)-2-methoxyphenyl)carbamate]
inhibition at 0.01 µM [1]: 39%
inhibition at 0.1 µM [1]: 64%
GI50 ([2]; Homo sapiens): 100 to 1000 nM

COc1cc(-c2cc(CCN3CCC(N(C)C)CC3)n3ncnc(N)c23)ccc1NC(=O)OC(C)(C)C [Example 98, tert-butyl (4-(4-amino-7-(2-(4-(dimethylamino)piperidin-1-yl)ethyl)pyrrolo[2,1-f][1,2,4]triazin-5-yl)-2-methoxyphenyl)carbamate]
inhibition at 0.01 µM [1]: 65%
inhibition at 0.1 µM [1]: 90%
GI50 ([2]; Homo sapiens): ≤ 100 nM

COc1cc(-c2cc(N3CCC(CN(C)C)CC3)n3ncnc(N)c23)ccc1NC(=O)OC(C)(C)C [Example 19, tert-butyl (4-(4-amino-7-(4-((dimethylamino)methyl)piperidin-1-yl)pyrrolo[2,1-f][1,2,4]triazin-5-yl)-2-methoxyphenyl)carbamate]
inhibition at 0.01 µM [1]: 69%
inhibition at 0.1 µM [1]: 86%
GI50 ([2]; Homo sapiens): ≤ 100 nM

COc1cc(-c2cc(N3CC[C@@H](N)[C@@H](F)C3)n3ncnc(N)c23)ccc1NC(=O)OC(C)(C)C [Example 46, tert-butyl (4-(4-amino-7-((3S,4R)-4-amino-3-fluoropiperidin-1-yl)pyrrolo[2,1-f][1,2,4]triazin-5-yl)-2-methoxyphenyl)carbamate]
inhibition at 0.01 µM [1]: 52%
inhibition at 0.1 µM [1]: 77%
GI50 ([2]; Homo sapiens): 100 to 1000 nM

COc1cc(-c2cc(N3CCC(N)(C(F)(F)F)CC3)n3ncnc(N)c23)ccc1NC(=O)OC(C)(C)C [Example 83, tert-butyl (4-(4-amino-7-(4-amino-4-(trifluoromethyl)piperidin-1-yl)pyrrolo[2,1-f][1,2,4]triazin-5-yl)-2-methoxyphenyl)carbamate]
YES1 kinase inhibition at 1 nM (in words) ([1]; compound 1 nM): could be inhibited even at a low concentration of 1 nM
inhibition at 0.001 µM ([1]; compound 1 nM): 14%
inhibition at 0.01 µM [1]: 24%
GI50 ([2]; Homo sapiens): 100 to 1000 nM

CNC1CCN(c2c(F)c(-c3ccc(NC(=O)OC(C)(C)C)c(OC)c3)c3c(N)ncnn23)CC1 [Example 129, tert-butyl (4-(4-amino-6-fluoro-7-(4-(methylamino)piperidin-1-yl)pyrrolo[2,1-f][1,2,4]triazin-5-yl)-2-methoxyphenyl)carbamate]
IC50 [1]: ≤ 100 nM
inhibition at 0.01 µM [1]: 70%
inhibition at 0.1 µM [1]: 92%
GI50 ([2]; Homo sapiens): ≤ 100 nM

tert-butyl (4-(4-amino-7-(6-(dimethylamino)pyridin-3-yl)pyrrolo[2,1-f][1,2,4]triazin-5-yl)-2-methoxyphenyl)carbamate [Example 6]
YES1 enzyme, % inhibition, 10 nM [1]: 41%
YES1 enzyme, % inhibition, 100 nM [1]: 46%
GI50 [2]: 1000 to 10000 nM
IC50 [3]: ≤ 100 nM

COc1cc(-c2cc(N3CCC4(CCN(C)CC4)C3)n3ncnc(N)c23)ccc1NC(=O)OC(C)(C)C [Example 36, tert-butyl (4-(4-amino-7-(8-methyl-2,8-diazaspiro[4.5]decan-2-yl)pyrrolo[2,1-f][1,2,4]triazin-5-yl)-2-methoxyphenyl)carbamate]
inhibition at 0.01 µM [1]: 36%
inhibition at 0.1 µM [1]: 78%
GI50 ([2]; Homo sapiens): 100 to 1000 nM

COc1cc(-c2cc(N3CCC(N)C(C)C3)n3ncnc(N)c23)ccc1NC(=O)OC(C)(C)C (stereo not shown) [Example 48, tert-butyl (4-(4-amino-7-(4-amino-3-methylpiperidin-1-yl)pyrrolo[2,1-f][1,2,4]triazin-5-yl)-2-methoxyphenyl)carbamate]
inhibition at 0.01 µM [1]: 70%
inhibition at 0.1 µM [1]: 96%
GI50 ([2]; Homo sapiens): ≤ 100 nM

COc1cc(-c2cc(NC3CCNCC3)n3ncnc(N)c23)ccc1NC(=O)OC(C)(C)C [Example 120, tert-butyl (4-(4-amino-7-(piperidin-4-ylamino)pyrrolo[2,1-f][1,2,4]triazin-5-yl)-2-methoxyphenyl)carbamate]
inhibition at 0.01 µM [1]: 40%
inhibition at 0.1 µM [1]: 78%
GI50 ([2]; Homo sapiens): 100 to 1000 nM
